From patent US12448388B2, “PRMT5 inhibitors and uses thereof” (Gilead Sciences, Inc., priority 2023, dated 2025)
In brackets after ≈: the same amount, converted by molar mass. Where two headings read alike, the source gives them in different places.

Legend:
[1] = Hepatocyte stability assay, human; type: in vitro ADME; conditions: human hepatocytes, 1 μM
Procedure: BioreclamationIVT (Baltimore, MD) provided the cryopreserved hepatocytes, hepatocyte thawing (HT) medium, and Krebs-Henseleit buffer (KHB) medium. The stock solution concentration was 1 M in DMSO and was then diluted further in acetonitrile/water (1:1 v/v). All other chemicals were purchased from Sigma-Aldrich (St. Louis, MO) or Thermo Fisher Scientific (Waltham, MA).
The quench solution used to stop reactions in the hepatocyte incubations was comprised of 100% (v/v) acetonitrile. Internal Standard/Quench (IS/Q) solution used to stop reactions with the positive control also contained 200 nM Labetalol.
Metabolic Stability in Cryopreserved Hepatocytes: Test compounds, or the positive control metabolic substrate, was incubated in suspensions of cryopreserved hepatocytes at a final concentration of 1 μM. Vials containing cryopreserved hepatocytes were removed from liquid nitrogen and immediately immersed in a 37° C. water bath. The vials were swirled gently until the contents had thawed. They were then immediately emptied into 48 mL of pre-warmed thawing medium in a 50 mL conical tube. Cells remaining in the vial were re-suspended with 1.0 mL of pre-warmed thawing medium and added to the conical tube. The tube was capped and then gently inverted several times to re-suspend the hepatocytes. The cell suspension was centrifuged at 500×g for 10 minutes at room temperature and the supernatant discarded. The cell pellet was loosened by gently swirling the centrifuge tube. Non-supplemented KHB medium was added to obtain the appropriate target cell density. The viabilities of all cell preparations were ≥85%, assessed by Trypan blue dye exclusion.
For incubations, aliquots of hepatocyte suspension (250 μL containing a cell concentration of 2×10^6 cells/mL) were added to 250 μL of 2 μM substrate (test compound or positive control) in supplemented KHB in duplicate wells in a 24-well plate. Final concentration in the incubations were 1×10^6 cells/mL and 1 μM substrate. A cell-free control incubation (KHB only) was also included. The incubations were carried out with gentle shaking in a 37° C. incubator under a humid atmosphere of 95% air/5% CO2 (v/v). Aliquots (100 μL) were removed after 0, 1, 3, and 6 hours and added to 200 μL quenching solution. The samples were then placed on a shaker for 10 min followed by centrifugation at 3000×g for 20 min. The supernatant was transferred to a new plate and diluted with 100 μL of water to reduce the organic content and then placed on a shaker for 10 mins. Samples were injected and analyzed with methods described below.
Liquid Chromatography: Quantification of positive control and test compound was performed by analyte/internal standard peak area ratios (PAR) measured on a Thermo Scientific™ Q Exactive™ Hybrid Quadrupole-Orbitrap Mass Spectrometer MS/MS with an electrospray interface operating in positive ion mode. The mass spectrometer was coupled to a Dionex Ultimate® 3000 HPLC system. Samples (10 μL aliquots) were injected with a Leap Technologies HTC PAL autosampler. For positive control, the column used was a Thermo Scientific™ Hypersil GOLD™ HPLC column ([…], 50×2.1 mm). Mobile phase A consisted of 95% (v/v) water, 5% (v/v) acetonitrile, and contained 0.1% (v/v) formic acid (FA). Mobile phase B consisted of 95% (v/v) acetonitrile, 5% (v/v) water, and contained 0.1% (v/v) FA. Elution was achieved, at a flow rate of 0.5 mL/min, by a series of linear gradients: initial condition was 5% B at 0 min, isocratic for 20 seconds; then linear gradient to 95% B over 90 seconds, followed by isocratic for 60 seconds at 95% B, and re-equilibrated to initial conditions over 70 seconds.
Metabolic stabilities of positive control and test compound were determined by measuring the rates of disappearance of the parent with time by determining the % of parent remaining at time t (Ct) {Obach 1997}.
Data (% of parent remaining) were plotted on a semi-log scale and fitted using an exponential fit: […]

[2] = PBS solubility (kinetic solubility from DMSO stocks); type: physicochemical; conditions: 22 °C, aqueous buffer, kinetic from dmso stock; 1x PBS pH 7.4, 1.0% DMSO, 24-hour incubation at ambient temperature
Procedure: Buffer Preparation: 1×PBS, 7.4: Phosphate Buffered Saline solution 10×, PBS (Fisher Bioreagent, part number BP399-500) 50 mL was added to approximately 450 mL HPLC grade H2O. The volume of the solution was then adjusted to 500 mL for a total dilution factor of 1:10 and a final PBS concentration of 1×. The pH of the final solution was measured and found to be 7.4.
The final DMSO Concentration is 1.0% and maximum theoretical compound concentration is 100 μM (assuming stock concentration of 10 mM). The filter plate was sealed. Following 24-hour incubation at ambient temperature (20.8-24.0° C.), the samples were vacuum filtered, and the filtrates were collected in a 96 well polypropylene plate for analysis. The collection plate was sealed for analysis. Filtrates were injected into the nitrogen detector for quantification on Analiza's Automated Discovery Workstation. The results are reported here in both μM and μg/mL.
Calculation of Results: The equimolar nitrogen response of the detector is calibrated using standards which span the dynamic range of the instrument from 0.08 to 4500 μg/ml nitrogen. The filtrates were quantified with respect to this calibration curve. The calculated solubility values are corrected for background nitrogen present in the DMSO, and the media used to prepare the samples. All reported values for compounds containing adjacent nitrogen atoms in a ring structure should be increased by ˜25%. […] The solubility results presented assume that the samples were free of nitrogen containing impurities and are stable under the assay conditions.

[3] = Cell viability assay (CellTiter-Glo, 7 days), HCT116 WT; type: cell-based; conditions: human, HCT116 WT cells, 7 days of treatment, CTG
Procedure: Control compounds were analyzed in parallel each time for quality control. In Brief, on Day -1, a serial dilution of stock compounds in DMSO was performed using BioMek liquid handlers and dispensed using Echo acoustic dispenser into 384 well plates. Both tool compounds and sample compounds were spotted in the same plate for a dose response of PRMT5 inhibitors. Compound plates were stored as frozen until the cells were ready for seeding. […] After equilibrating the plate in room temperature, the cells were incubated for 7 days inside the sealed incubator set at 37° C. with 90% humidity and 5% CO2. On Day 7, the viability of cells was measured using a CTG assay kit (CellTitre-Glo;Promega cat no. G7573). Shortly, 40 μl per well of luminescent cell viability assay reagent were dispensed using EL460 liquid dispenser 5 μl cassette. CTG luminescence signal was measured using an EnVision plate reader (PerkinElmer) in accordance with manufacturer's instruction. […] Selectivity with * is artificially high due to limited solubility of the compound hampering accurate measurement of WT CC50.

[4] = MDR1/BCRP assay: permeability in cPgp-KO-MDCK-WT cells; type: in vitro ADME; conditions: dog, pH 7.4
Procedure: The cells were maintained in an incubator at 37° C., 90% humidity, and 5% CO2 until reaching confluence over 5 days in 96-well transwell plates. Experiments were conducted using an HBSS donor buffer (Invitrogen) containing 10 mM HEPES and 15 mM glucose, adjusted to pH 7.4. The receiver well contained HBSS buffer supplemented with 1% BSA, 10 mM HEPES, and 15 mM glucose, and the pH was adjusted to 7.4. TEER values were measured to assess membrane integrity after an initial equilibration with BSA-free transport buffer for 15 minutes. The experiment was started by adding dosing solutions containing test compounds at 1 μM. Cells were dosed on the apical (A) side or basolateral (B) side at 100 μl and 200 μl, respectively, to determine forward (A to B) and reverse (B to A) permeability. At the 2-hour time point, 50 μl samples were collected from the receiver compartment. Each compound was tested in 2 separate replicate wells for each condition. All samples were immediately collected into plates, and 50 μL of acetonitrile was added. Subsequently, 350 μl of 30:70 methanol: acetonitrile containing internal standard was added to precipitate proteins and stabilize the test compounds. To test for non-specific binding and compound instability, the total amount of the drug was quantified at the end of the experiment and compared to the material present in the original dosing solution as a percentage of the recovery. All samples were analyzed by LC-MS/MS using electrospray ionization.
The apparent permeability, Papp, and % recovery were calculated as follows: […]

[5] = system: HCT116 MTAP-deleted cell lines; assay: Cell viability assay (CellTiter-Glo, 7 days), HCT116 MTAP-deleted; type: cell-based; conditions: for Selectivity: HCT116 WT CC50 versus HCT116 MTAP^del CC50; for plasma-adjusted CC50 (paCC50): paCC50 = CC50-HCT116-MTAP^del * (% free CCM/% free human plasma); for CC50: Homo sapiens, HCT116 MTAP-deleted
Outline: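 Each PRMT5 inhibitor was tested as a dose response alongside tool compounds on the same plate. Incubation ran 7 days at 37 °C under 5% CO2, after which CellTiter-Glo luminescence was recorded and CC50 calculated.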

[6] = Pharmacokinetics in cassette in male Sprague-Dawley rats for Kp measurement; type: in vivo; conditions: 1 mg/kg, intravenous
Procedure: E.1 Test Animal: Male Sprague-Dawley Rats (225-300 g) with Indwelling Bilateral Jugular Vain Cannula (JVC/JVC) or Single Jugular Vein Cannula (JVC)
E.2 Pharmaceutical Formulation and Administration
Test compound was dissolved in the vehicle of 10% DMSO, 10% ethanol, 40% polyethylene glycol 300, and 40% propylene glycol to get 1 mg/mL test compound solution. The compound was administered by intravenous administration at a dose of 1 mL/kg. Fasting was not required.
• Anticoagulant: K2EDTA • Volume: approximately 225 μL blood at each bleed • Jugula vein via syringe and needle or another method (non-terminal samples) or exsanguination (cardiac puncture) under isoflurane (or CO2 inhalation if isoflurane is unavailable) anesthesia (terminal time points). Blood samples were collected into K2EDTA tubes • Tissue collection and processing: following the terminal blood collection, the brain and CSF were collected from each animal.

[7] = HCT-116, 168 h, 7 days of treatment, CTG, read-out: CC50-HCT116-MTAP^del
[8] = brain Kp = [brain]/[plasma], rat, read-out: Rat brain Kp
[9] = brain Kpu,u = Kp * (plasma free/rat brain free), read-out: Rat brain Kpu,u
[10] = HCT-116, cell viability assay, class symbols, read-out: CC50

With `Nc1nc2cc(F)c(C(=O)N3CCC[C@@H]4Oc5cc(C(F)(F)F)ncc5[C@@H]43)cc2n2cncc12` [Ff-117, (4-amino-7-fluoroimidazo[1,5-a]quinoxalin-8-yl)((4aS,9bS)-7-(trifluoromethyl)-3,4,4a,9b-tetrahydrofuro[3,2-b:4,5-c′]dipyridin-1(2H)-yl)methanone] the “Human Predicted Hepatocyte CL” value [1] was 0.83 mL/min/kg, the solubility at 24 h [2] was 54.7 µM (≈ 25.8 µg/mL) and the CC50 at 7 days [3] was 1250 nM. For the same molecule, the Papp A→B at 2 h, 1 µM [4] was 11.3 ×10⁻⁶ cm/s, the Selectivity [5] was 69 and the plasma-adjusted CC50 (paCC50) ([5]; HCT-116) was 269 nM. The CC50 [5, 7] was 18 nM and the CC50 ([5]; HCT-116, cell viability, class symbols, read-out: CC50) was under 100 nM.

For `Nc1nc2cc(Cl)c(C(=O)N3CCC[C@@H]4Oc5cc(C(F)(F)F)ccc5[C@@H]43)cc2n2cncc12` [Ff-587, (4-amino-7-chloroimidazo[1,5-a]quinoxalin-8-yl)((4aS,9bS)-7-(trifluoromethyl)-3,4,4a,9b-tetrahydrobenzofuro[3,2-b]pyridin-1(2H)-yl)methanone], the Kp [6, 8] was 0.52, the Kp [6, 9] was 0.06 and the solubility at 24 h [2] was under 1 µM. It also gave a CC50 at 7 days [3] of 274 nM, a Papp A→B at 2 h, 1 µM [4] of 7.4 ×10⁻⁶ cm/s and a Selectivity [5] of 55. It also gave a plasma-adjusted CC50 (paCC50) ([5]; HCT-116) of 329 nM, a CC50 [5, 7] of 5 nM and a CC50 [5, 10] of under 100 nM.

With `Nc1nc2ccc(C(=O)N3CCC[C@@H]4Oc5cc(C(F)(F)F)cc(F)c5[C@@H]43)cc2n2cncc12` [Ff-693, (4-aminoimidazo[1,5-a]quinoxalin-8-yl)((4aS,9bS)-9-fluoro-7-(trifluoromethyl)-3,4,4a,9b-tetrahydrobenzofuro[3,2-b]pyridin-1(2H)-yl)methanone] the “Human Predicted Hepatocyte CL” value [1] was 5.17 mL/min/kg, the CC50 at 7 days [3] was 1880 nM and the Papp A→B at 2 h, 1 µM [4] was 12.6 ×10⁻⁶ cm/s. For the same molecule, the Selectivity [5] was 125, the plasma-adjusted CC50 (paCC50) ([5]; HCT-116) was 247 nM and the CC50 [5, 7] was 15 nM.

In the case of `Nc1nc2ccc(C(=O)N3CCC[C@@H]4Oc5cc(OC(F)(F)F)cc(F)c5[C@@H]43)cc2n2cncc12` [Ff-697, (4-aminoimidazo[1,5-a]quinoxalin-8-yl)((4aS,9bS)-9-fluoro-7-(trifluoromethoxy)-3,4,4a,9b-tetrahydrobenzofuro[3,2-b]pyridin-1(2H)-yl)methanone], the “Human Predicted Hepatocyte CL” value [1] is reported as 6.7 mL/min/kg, the solubility at 24 h [2] is reported as 2.5 µM (≈ 1.22 µg/mL) and the CC50 at 7 days [3] is reported as 4990 nM. For the same molecule, the Selectivity [5] was 199, the plasma-adjusted CC50 (paCC50) ([5]; HCT-116) was 289 nM and the CC50 [5, 7] was 25 nM.

`Cc1ncc2c(N)nc3cnc(C(=O)N4CC[C@H]5C[C@@H]4c4ccc(C(F)(F)F)c(F)c4O5)cc3n12` [Ff-699, (4-amino-1-methylimidazo[1,5-a]pyrido[3,4-e]pyrazin-8-yl)((2S,6R)-10-fluoro-9-(trifluoromethyl)-3,4-dihydro-2H-2,6-methanobenzo[b][1,5]oxazocin-5(6H)-yl)methanone] gave a solubility at 24 h [2] of 2.6 µM (≈ 1.26 µg/mL), a CC50 at 7 days [3] of 1110 nM and a Papp A→B at 2 h, 1 µM [4] of 10.9 ×10⁻⁶ cm/s. It also gave a Selectivity [5] of 74, a plasma-adjusted CC50 (paCC50) ([5]; HCT-116) of 237 nM and a CC50 [5, 7] of 15 nM.

Molecule `Cc1ncn2c1c(N)nc1ccc(C(=O)N3CCC[C@@H]4Oc5cc(C(F)(F)F)ccc5[C@@H]43)cc12` [Fg-31, (4-amino-3-methylimidazo[1,5-a]quinoxalin-8-yl)((4aS,9bS)-7-(trifluoromethyl)-3,4,4a,9b-tetrahydrobenzofuro[3,2-b]pyridin-1(2H)-yl)methanone] has a Kp [6, 8] of 0.76, a Kp [6, 9] of 0.13 and a solubility at 24 h [2] of 1.6 µM (≈ 0.748 µg/mL). It also gave a CC50 at 7 days [3] of 2140 nM, a Papp A→B at 2 h, 1 µM [4] of 10.3 ×10⁻⁶ cm/s and a Selectivity [5] of 113. For the same molecule, the plasma-adjusted CC50 (paCC50) ([5]; HCT-116) was 312 nM, the CC50 [5, 7] was 19 nM and the CC50 [5, 10] was under 100 nM.
